Experiments:
[1] = target: T1, human sodium glucose co-transporter 2 (Homo sapiens, UniProt P31639); assay: SGLT-2 assay: sodium-dependent 14C-AMG uptake in CHO-hSGLT2 or HEK-hSGLT2 cells; assay type: cell-based; conditions: n = 1-4, read-out: SGLT2 IC50 nM (n = 1-4)
T1 construct: expressed in transfected cells; host or cells: CHO-K1 (ATCC CCL-61) or HEK293 (ATCC CRL-1573), stably transfected with pZeoSV carrying the hSGLT2 cDNA
T1 sequence (P31639 1-672): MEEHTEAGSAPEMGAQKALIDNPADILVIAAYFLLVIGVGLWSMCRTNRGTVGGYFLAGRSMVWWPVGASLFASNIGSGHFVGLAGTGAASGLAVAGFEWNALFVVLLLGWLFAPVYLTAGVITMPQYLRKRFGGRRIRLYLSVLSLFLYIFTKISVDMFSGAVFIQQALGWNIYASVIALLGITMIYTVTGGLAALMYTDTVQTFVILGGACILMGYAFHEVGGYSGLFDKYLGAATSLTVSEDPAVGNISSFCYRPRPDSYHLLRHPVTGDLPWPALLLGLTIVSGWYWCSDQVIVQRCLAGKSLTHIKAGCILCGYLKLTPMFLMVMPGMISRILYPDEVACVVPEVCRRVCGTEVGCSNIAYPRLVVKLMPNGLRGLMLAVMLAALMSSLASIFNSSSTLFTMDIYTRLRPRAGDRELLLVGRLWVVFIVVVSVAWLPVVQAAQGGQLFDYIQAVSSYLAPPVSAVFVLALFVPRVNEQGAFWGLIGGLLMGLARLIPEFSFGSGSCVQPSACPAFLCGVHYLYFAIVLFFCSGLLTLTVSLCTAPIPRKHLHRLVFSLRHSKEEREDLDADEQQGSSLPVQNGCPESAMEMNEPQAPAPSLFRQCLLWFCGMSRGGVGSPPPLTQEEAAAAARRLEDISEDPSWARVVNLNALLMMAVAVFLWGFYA
Protocol: These cell lines transport ^14C-labelled alpha-methyl-glucopyranoside (^14C-AMG, Amersham) into the interior of the cell in sodium-dependent manner.
(§1) The SGLT-2 assay is carried out as follows: CHO-hSGLT2 cells are cultivated in Ham's F12 Medium (BioWhittaker) with 10% foetal calf serum and 250 μg/mL zeocin (Invitrogen), and HEK293-hSGLT2 cells are cultivated in DMEM medium with 10% foetal calf serum and 250 μg/mL zeocin (Invitrogen). The cells are detached from the culture flasks by washing twice with PBS and subsequently treating with trypsin/EDTA. After the addition of cell culture medium the cells are centrifuged, resuspended in culture medium and counted in a Casy cell counter. Then 40,000 cells per well are seeded into a white, 96-well plate coated with poly-D-lysine and incubated overnight at 37° C., 5% CO2. The cells are washed twice with 250 μl of assay buffer (Hanks Balanced Salt Solution, 137 mM NaCl, 5.4 mM KCl, 2.8 mM CaCl2, 1.2 mM MgSO4 and 10 mM HEPES (pH 7.4), 50 μg/mL of gentamycin). 250 μl of assay buffer and 5 μl of test compound are then added to each well and the plate is incubated for a further 15 minutes in the incubator. 5 μl of 10% DMSO are used as the negative control. The reaction is started by adding 5 μl of 14 C— AMG (0.05 μCi) to each well. After 2 hours' incubation at 37° C., 5% CO2, the cells are washed again with 250 μl of PBS […] and then lysed by the addition of 25 μl of 0.1 N NaOH (5 min. at 37° C.). 200 μl of MicroScint20 (Packard) are added to each well and incubation is continued for a further 20 min at 37° C. After this incubation the radioactivity of the ^14C-AMG absorbed is measured in a Topcount (Packard) using a ^14C scintillation program.

[2] = target: T2, human SGLT1 (Homo sapiens, UniProt P13866); assay: SGLT1 assay: analogous 14C-AMG uptake test with hSGLT1 cDNA expressed in CHO-K1 or HEK293 cells; assay type: cell-based; conditions: n = 1-4
T2 construct: the cDNA for hSGLTI (Genbank Ace. No. NM000343); expressed in transfected cells; host or cells: CHO-K1 or HEK293 cells expressing the hSGLT1 cDNA
T2 sequence (P13866 1-664): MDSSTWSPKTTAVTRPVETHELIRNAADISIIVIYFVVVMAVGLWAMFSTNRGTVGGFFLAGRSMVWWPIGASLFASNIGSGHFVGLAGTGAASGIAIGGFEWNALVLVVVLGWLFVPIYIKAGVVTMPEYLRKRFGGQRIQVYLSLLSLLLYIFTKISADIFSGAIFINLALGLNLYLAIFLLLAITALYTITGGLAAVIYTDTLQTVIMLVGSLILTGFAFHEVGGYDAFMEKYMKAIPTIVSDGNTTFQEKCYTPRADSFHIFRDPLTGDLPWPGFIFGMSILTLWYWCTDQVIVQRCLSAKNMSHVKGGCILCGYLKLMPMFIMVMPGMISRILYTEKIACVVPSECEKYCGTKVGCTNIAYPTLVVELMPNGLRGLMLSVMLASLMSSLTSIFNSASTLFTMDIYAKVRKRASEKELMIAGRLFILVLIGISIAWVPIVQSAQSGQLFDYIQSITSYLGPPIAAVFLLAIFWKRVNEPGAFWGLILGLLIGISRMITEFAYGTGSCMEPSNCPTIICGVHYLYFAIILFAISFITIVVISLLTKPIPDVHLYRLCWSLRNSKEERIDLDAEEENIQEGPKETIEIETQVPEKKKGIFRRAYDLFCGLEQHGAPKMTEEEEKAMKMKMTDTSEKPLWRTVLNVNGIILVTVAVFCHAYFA
Protocol: as §1
To determine the selectivity with respect to human SGLT1 an analogous test is set up in which the cDNA for hSGLTI (Genbank Ace. No. NM000343) instead of hSGLT2 cDNA is expressed in CHO-K1 or HEK293 cells.

`CCc1ccc([C@@H]2O[C@H](SC)[C@@H](O)[C@H](O)[C@H]2O)cc1Cc1ccc2c(c1)OCCO2` [Example 1-1, (2S,3R,4R,5S,6R)-2-[3-(2,3-Dihydro-benzo[1,4]dioxin-6-ylmethyl)-4-ethyl-phenyl]-6-methylsulfanyl-tetrahydropyran-3,4,5-triol] gave an IC50 [1] of 0.36 nM.

In the case of `CSC1O[C@@H](c2ccc(C3CC3)c(Cc3ccc4c(c3)OCCO4)c2)[C@H](O)[C@@H](O)[C@@H]1O` (stereo partly drawn) [Example 1, (2S,3R,4R,5S)-2-[4-cyclopropyl-3-(2,3-dihydro-benzo[1,4]dioxin-6-ylmethyl)-phenyl]-6-methylsulfanyl-tetrahydro-pyran-3,4,5-triol], the IC50 [1] is reported as 0.29 nM and the IC50 [2] is reported as 0.55 nM.

In the case of `CS(=O)(=O)[C@H]1O[C@@H](c2ccc(C3CC3)c(Cc3ccc4c(c3)OCCO4)c2)[C@H](O)[C@@H](O)[C@@H]1O` [Example 2, (2S,3R,4R,5S)-2-[4-Cyclopropyl-3-(2,3-dihydro-benzo[1,4]dioxin-6-ylmethyl)-phenyl]-6-methanesulfonyl-tetrahydro-pyran-3,4,5-triol], the IC50 [1] is reported as 9.2 nM and the IC50 [2] is reported as 97 nM.

For `CCc1ccc([C@@H]2O[C@H](S(C)(=O)=O)[C@@H](O)[C@H](O)[C@H]2O)cc1Cc1ccc2c(c1)OCCO2` [Example 2-1, (2S,3R,4R,5S,6R)-2-[3-(2,3-Dihydro-benzo[1,4]dioxin-6-ylmethyl)-4-ethyl-phenyl]-6-methanesulfonyl-tetrahydropyran-3,4,5-triol], the IC50 [1] was 1.45 nM and the IC50 [2] was 195 nM.

Reference: US8722633B2, “Glycoside derivatives and uses thereof” (Novartis AG, priority 2011, dated 2014)
